Data on 4 molecules can be found in patent US20100184989A1, “De Novo Synthesis of Conjugates” (Nektar Therapeutics, priority 2007, published 2010).

Structures are written as SMILES. pIC50: −log10 of the molar value.

calcium channel type L, sequence (P22002 whole entry): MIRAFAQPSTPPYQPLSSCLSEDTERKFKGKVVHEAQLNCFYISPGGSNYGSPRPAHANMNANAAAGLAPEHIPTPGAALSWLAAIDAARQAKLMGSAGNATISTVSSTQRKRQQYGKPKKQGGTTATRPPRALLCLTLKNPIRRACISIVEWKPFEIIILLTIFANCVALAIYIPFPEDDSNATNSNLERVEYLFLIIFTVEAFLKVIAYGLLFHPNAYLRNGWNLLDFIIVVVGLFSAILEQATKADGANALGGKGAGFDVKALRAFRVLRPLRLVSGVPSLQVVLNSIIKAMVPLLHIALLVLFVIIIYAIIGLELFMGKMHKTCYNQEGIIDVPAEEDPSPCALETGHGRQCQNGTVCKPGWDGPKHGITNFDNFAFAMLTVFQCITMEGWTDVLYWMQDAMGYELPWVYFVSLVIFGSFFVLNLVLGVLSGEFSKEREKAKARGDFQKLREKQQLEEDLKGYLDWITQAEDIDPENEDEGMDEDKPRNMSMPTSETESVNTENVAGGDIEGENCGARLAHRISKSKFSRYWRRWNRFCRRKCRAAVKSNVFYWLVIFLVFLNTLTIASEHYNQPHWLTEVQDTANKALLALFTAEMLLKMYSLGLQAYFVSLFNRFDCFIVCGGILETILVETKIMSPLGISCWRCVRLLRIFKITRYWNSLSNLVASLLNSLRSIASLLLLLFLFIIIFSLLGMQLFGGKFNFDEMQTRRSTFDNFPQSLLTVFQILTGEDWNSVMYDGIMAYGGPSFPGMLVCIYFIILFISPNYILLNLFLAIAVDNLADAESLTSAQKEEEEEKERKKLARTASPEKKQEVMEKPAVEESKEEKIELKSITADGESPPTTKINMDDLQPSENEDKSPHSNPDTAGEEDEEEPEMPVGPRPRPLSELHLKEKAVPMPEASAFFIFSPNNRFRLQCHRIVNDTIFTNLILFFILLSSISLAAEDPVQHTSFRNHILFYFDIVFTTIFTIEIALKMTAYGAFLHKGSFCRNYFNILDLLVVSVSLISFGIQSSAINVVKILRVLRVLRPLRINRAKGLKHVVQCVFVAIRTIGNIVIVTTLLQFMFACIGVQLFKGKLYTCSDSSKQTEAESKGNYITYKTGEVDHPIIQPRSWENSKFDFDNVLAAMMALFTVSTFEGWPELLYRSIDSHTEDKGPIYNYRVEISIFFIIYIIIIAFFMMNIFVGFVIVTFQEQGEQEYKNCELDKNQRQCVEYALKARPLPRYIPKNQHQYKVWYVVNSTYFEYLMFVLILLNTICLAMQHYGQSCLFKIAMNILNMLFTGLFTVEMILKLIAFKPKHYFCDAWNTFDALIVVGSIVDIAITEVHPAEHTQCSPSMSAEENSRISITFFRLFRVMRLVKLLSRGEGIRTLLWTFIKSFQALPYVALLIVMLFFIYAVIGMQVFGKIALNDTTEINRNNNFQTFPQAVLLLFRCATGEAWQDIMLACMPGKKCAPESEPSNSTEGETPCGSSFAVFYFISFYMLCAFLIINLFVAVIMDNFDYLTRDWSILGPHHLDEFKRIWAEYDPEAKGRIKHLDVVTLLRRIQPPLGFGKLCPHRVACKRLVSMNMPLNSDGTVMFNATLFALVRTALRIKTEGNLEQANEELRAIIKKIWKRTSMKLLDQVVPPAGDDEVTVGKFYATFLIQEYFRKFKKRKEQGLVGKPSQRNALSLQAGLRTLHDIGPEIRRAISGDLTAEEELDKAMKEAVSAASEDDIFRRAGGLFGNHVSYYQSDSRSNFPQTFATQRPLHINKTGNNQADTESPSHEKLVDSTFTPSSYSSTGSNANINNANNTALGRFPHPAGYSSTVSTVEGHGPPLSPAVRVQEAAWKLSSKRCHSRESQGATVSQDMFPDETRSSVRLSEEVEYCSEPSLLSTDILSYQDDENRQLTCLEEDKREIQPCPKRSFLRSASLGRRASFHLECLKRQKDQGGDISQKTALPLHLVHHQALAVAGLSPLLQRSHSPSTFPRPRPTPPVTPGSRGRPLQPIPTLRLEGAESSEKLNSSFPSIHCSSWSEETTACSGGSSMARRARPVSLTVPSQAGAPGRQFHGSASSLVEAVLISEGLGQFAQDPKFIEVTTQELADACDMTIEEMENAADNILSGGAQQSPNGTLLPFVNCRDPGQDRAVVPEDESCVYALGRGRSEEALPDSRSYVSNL

This experiment concerns the target calcium channel type L (Rattus norvegicus, UniProt P22002). As to the kind of experiment: Calcium channel type L binding assay, [3H]Nitrendipine displacement. Particulars: rat cortical membranes; [3H]Nitrendipine 0.2 nM; 50 mM TRIS-HCl pH 7.7, 25° C., 60 minutes; nifedipine reference value given beside each test compound. The method, then:
In the assay, rat cortical membranes were used as a receptor source and the radioligand [^3H]Nitrendipine (70-87 Ci/mmol) was used at a final ligand concentration of 0.2 nM. […] The reactions were carried out in 50 mM TRIS-HCl (pH 7.7) at 25° C. for 60 minutes. The reaction was terminated by rapid vacuum filtration onto glass fiber filters. Radioactivity trapped onto the filters was determined and compared to control values in order to ascertain any interactions of test compound with the nitredipine binding site (Gould, Murphy, and Snyder. Molecular Pharmacology 25, 235-241 (1984)).
The pIC50 is −log10 of the IC50, conventionally taken in molar units. Take `COCCOCCOCCOC(=O)C1=C(C)NC(C)=C(C(=O)OCCOCCOCCOC)C1c1ccccc1[N+](=O)[O-]` [compound (2) from Example 1, 2,6-dimethyl 4-(2-nitrophenyl)-1,4-dihydropyridine-3,5-dicarboxylic acid dimethoxy tri(ethylene glycol)ester]: the pIC50 was 6.80. With `COCCOCCOC(=O)C1=C(C)NC(C)=C(C(=O)OCCOCCOC)C1c1ccccc1[N+](=O)[O-]` [compound (6a) from Example 3, 2,6-dimethyl 4-(2-nitrophenyl)-1,4-dihydropyridine-3,5-dicarboxylic acid dimethoxy di(ethylene glycol)ester] the figure was 7.17; with `CCCCOCCOCCOC(=O)C1=C(C)NC(C)=C(C(=O)OCCOCCOCCCC)C1c1ccccc1[N+](=O)[O-]` [compound (6b) from Example 3, 2,6-dimethyl 4-(2-nitrophenyl)-1,4-dihydropyridine-3,5-dicarboxylic acid dibutoxy di(ethylene glycol)ester], 7.81. The figure for `CCCCCCOCCOCCOC(=O)C1=C(C)NC(C)=C(C(=O)OCCOCCOCCCCCC)C1c1ccccc1[N+](=O)[O-]` [compound (6c) from Example 3, 2,6-dimethyl 4-(2-nitrophenyl)-1,4-dihydropyridine-3,5-dicarboxylic acid dihexoxy di(ethylene glycol)Ester] is 7.25.
